The IC50 is the concentration that gives 50% inhibition.

This is an account of results in US11090304B2 (Amgen Inc., priority 2018, dated 2021).

Assay [1] has as its target GDP-bound KRAS protein (aa 1-169), containing both G12C and C118A amino acid substitutions (Homo sapiens, UniProt P01116, C118A/G12C). The assay can be described thus: Coupled nucleotide exchange assay (SOS-mediated, AlphaScreen). Format: biochemical. As to conditions: for Coupled exchange IC50 (2 h): 2 h compound pre-incubation.
Assay [2] has as its system Phosphorylation of ERK1/2 in MIA PaCa-2 cells. The assay can be described thus: Phospho-ERK1/2 MSD assay in MIA PaCa-2 cells. It is filed as cell-based. As to conditions: Homo sapiens, MIA PaCa-2, 2 h, read-out: p-ERK IC50 (2 h; MIA PaCa-2), 2 h compound treatment. In short, it runs like this: (§1)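 MSD electrochemiluminescence readout of phospho-ERK1/2 in whole-cell lysates, IC50 by 4-parameter logistic fit. Compound titrations were applied for 2 or 4 h at 37 °C, 5% CO2, followed by 10 ng/mL EGF stimulation for 10 min before lysis.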

The test system of assay [3] is Phosphorylation of ERK1/2 in A549 cells. The assay is described as follows: Phospho-ERK1/2 MSD assay in A549 cells. Format: cell-based. As to conditions: Homo sapiens, A549, 2 h, read-out: p-ERK IC50 (2 h; A549), 2 h compound treatment. In short, it runs like this:
as §1

GDP-bound KRAS protein (aa 1-169), containing both G12C and C118A amino acid substitutions, sequence (P01116 1-169 isoform P01116-2 G12C/C118A): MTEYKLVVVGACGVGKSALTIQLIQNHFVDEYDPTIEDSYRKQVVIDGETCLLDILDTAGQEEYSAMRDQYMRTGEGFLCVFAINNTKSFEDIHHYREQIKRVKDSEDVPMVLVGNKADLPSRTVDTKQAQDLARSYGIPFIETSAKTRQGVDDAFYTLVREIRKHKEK

Take `C=CC(=O)N1CCN(c2nc(=O)n(-c3c(CC)cccc3CC)c3nc(C4CC4)c(Cl)cc23)[C@@H](C)C1` [Example 94, 6-Chloro-7-cyclopropyl-1-(2,6-diethylphenyl)-4-((2S)-2-methyl-4-(2-propenoyl)-1-piperazinyl)pyrido[2,3-d]pyrimidin-2(1H)-one]: the “Coupled exchange IC50 (5 min)” value in assay [1] (5 min compound pre-incubation) was 0.781 µM. The “Coupled exchange IC50 (2 h)” value in assay [1] turned out to be 0.112 µM. Besides, the figures for the IC50 in assay [2] and in assay [3] were 1.51 µM and at least 10 µM, respectively.

Regarding `C=CC(=O)N1CCN(c2nc(=O)n(-c3ccc(OCCN=[N+]=[N-])cc3C(C)C)c3nc(N4CCCCC4)c(Cl)cc23)[C@@H](C)C1` [Example 117, 1-(4-(2-Azidoethoxy)-2-(2-propanyl)phenyl)-6-chloro-4-((2S)-2-methyl-4-(2-propenoyl)-1-piperazinyl)-7-(1-piperidinyl)pyrido[2,3-d]pyrimidin-2(1H)-one], the “Coupled exchange IC50 (2 h)” value in assay [1] is recorded as “nda | 0.916 μM”. For the same compound, the IC50 in assay [2] was 4.88 µM; in assay [3] it was at least 10 µM.
